# According to paper PMC3172808 (Journal of medicinal chemistry, 2011):
# Assays:
# [1] = rodents; ref [7]–[9]; cited from earlier work
# MCF-7 cancer cells = conditions: read-out: MCF-7 IC50; Table 1; ref [17]–[20]; cited from earlier work
# [2] = over 24 h; ref [16]; cited from earlier work
# aqueous solubility = assay type: physicochemical
# [3] = tested on: renal carcinoma cell line 786-0; experiment: potency toward MDR-1 expressing 786-0 cells with and without verapamil; assay type: cell-based
# [4] = tested on: MDA-MB-231 breast cancer model; conditions: continued dosing at 40 mg/kg (½MTD), ref [16], cited from earlier work
# A2780cis = experiment: potency toward A2780cis; assay type: cell-based, human; conditions: read-out: drug IC50 A2780cis; cisplatin resistant
# A2780ADR = experiment: potency toward A2780ADR; assay type: cell-based, human; conditions: read-out: drug IC50 A2780ADR; adriamycin resistant, MDR-1 overexpression
smiles,measurement,setting,value
"COc1cc2c(c(OC)c1OC)-c1ccc(OC)c(=O)cc1[C@@H](NC(C)=O)CC2 [Compound 1, colchicine]",LD50,[1],< 5 mg/kg
COc1ccc(-c2sccc2C(=O)c2cc(OC)c(OC)c(OC)c2)cc1O [Compound 14],IC50,MCF-7 cancer cells,300 ± 400 nM
"COc1cc(C(=O)c2c(C)oc3c(O)c(OC)ccc23)cc(OC)c1OC [Compound 8, 7-hydroxy-6-methoxy-2-methyl-3-(3,4,5-trimethoxybenzoyl)benzo-[b]furan]",clearance from healthy tissues,[2],completely cleared from healthy tissues over 24 h
same,aqueous solubility,aqueous solubility,poor
same,MDR-1 transporter substrate,[3],not a substrate for the MDR-1 transporter
"COc1cc(C(=O)c2c(C)oc3c(OP(=O)([O-])[O-])c(OC)ccc23)cc(OC)c1OC.[Na+].[Na+] [Compound 9, Disodium (6-Methoxy-2-methyl-3-(3,4,5-trimethoxybenzoyl)benzofuran-7-yl)phosphate]","complete eradication of tumors, % of the mice",[4]; after 70 days,14%
same,tumor growth on continued dosing,[4],completely suppresses tumor growth
N.N.[Cl][Pt][Cl] [cisplatin],IC50,A2780cis,5.02 µM
same,IC50,A2780ADR,1100 nM
